Test results reported in PubChem BioAssay (NCI).
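How tested: cells in 96-well plates exposed to compound for 48 hours at five concentrations. TGI marks complete inhibition of growth.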

Assays:
Test in all cases: NCI tumour cell line growth inhibition, 48 h
786-0 renal = system: 786-0 renal
LXFL 529 NSCLC = system: LXFL 529 NSCLC
SF-268 CNS = system: SF-268 CNS
OVCAR-8 ovarian = system: OVCAR-8 ovarian
HOP-62 NSCLC = system: HOP-62 NSCLC
NCI-H522 lung = system: NCI-H522 lung
SNB-75 CNS = system: SNB-75 CNS
SF-539 CNS = system: SF-539 CNS
HL-60(TB) leukemia = system: HL-60(TB) leukemia
SK-MEL-5 melanoma = system: SK-MEL-5 melanoma
CAKI-1 renal = system: CAKI-1 renal
K-562 leukemia = system: K-562 leukemia
HCT-15 colon = system: HCT-15 colon
SNB-78 CNS = system: SNB-78 CNS
HCC-2998 colon = system: HCC-2998 colon
ACHN renal = system: ACHN renal
UO-31 renal = system: UO-31 renal
RPMI-8226 leukemia = system: RPMI-8226 leukemia
OVCAR-5 ovarian = system: OVCAR-5 ovarian
COLO 205 colon = system: COLO 205 colon
SK-MEL-2 melanoma = system: SK-MEL-2 melanoma
XF 498 CNS = system: XF 498 CNS
KM20L2 colon = system: KM20L2 colon
SW-620 colon = system: SW-620 colon
DMS 114 small cell lung = system: DMS 114 small cell lung
U251 CNS = system: U251 CNS
NCI-H23 lung = system: NCI-H23 lung
NCI-H226 lung = system: NCI-H226 lung
SNB-19 CNS = system: SNB-19 CNS
CCRF-CEM leukemia = system: CCRF-CEM leukemia
UACC-62 melanoma = system: UACC-62 melanoma
EKVX NSCLC = system: EKVX NSCLC
M19-MEL melanoma = system: M19-MEL melanoma
IGROV1 ovarian = system: IGROV1 ovarian
SK-MEL-28 melanoma = system: SK-MEL-28 melanoma
OVCAR-4 ovarian = system: OVCAR-4 ovarian
MOLT-4 leukemia = system: MOLT-4 leukemia
HOP-92 NSCLC = system: HOP-92 NSCLC
A549 NSCLC = system: A549 NSCLC
NCI-H460 lung = system: NCI-H460 lung
DLD-1 colon = system: DLD-1 colon
A498 renal = system: A498 renal
HCT-116 colon = system: HCT-116 colon
RXF-631 renal = system: RXF-631 renal
MALME-3M melanoma = system: MALME-3M melanoma
SK-OV-3 ovarian = system: SK-OV-3 ovarian
LOX IMVI melanoma = system: LOX IMVI melanoma
M14 melanoma = system: M14 melanoma
SN12C renal = system: SN12C renal
TK-10 renal = system: TK-10 renal
RXF 393 renal = system: RXF 393 renal
SR leukemia = system: SR leukemia
SF-295 CNS = system: SF-295 CNS
OVCAR-3 ovarian = system: OVCAR-3 ovarian
UACC-257 melanoma = system: UACC-257 melanoma
DMS 273 small cell lung = system: DMS 273 small cell lung
KM12 colon = system: KM12 colon
HT29 colon = system: HT29 colon

Measured: TGI

CC(=O)OC1(C#N)CC2OC1C1NC21 (stereo not drawn)
not listed: SR leukemia | SF-295 CNS | OVCAR-3 ovarian | UACC-257 melanoma | DMS 273 small cell lung | KM12 colon | HT29 colon
> 100 µM: all other assays above

N#CCCn1c(CCC(=O)Nc2ccc(Cl)cc2Cl)n[nH]c1=S
not listed: EKVX NSCLC
> 100 µM: all other assays above
